Here are results for 22 molecules from US4595700A, “Thiol based collagenase inhibitors” (G. D. Searle & Co., priority 1985, dated 1986).

“And” between values parts separate entries of the source, which are not always exact repeats. Equal values may be shown once.

What is called IC50 is the point on the concentration scale where inhibition reaches its midpoint.

One assay has as its target T1, Human Rheumatoid Synovial collagenase (Homo sapiens, UniProt P03956).
T1 construct: from tissue; host or cells: rheumatoid synovium (tissue or synovial cell culture not distinguished)
T1 sequence (P03956 100-469): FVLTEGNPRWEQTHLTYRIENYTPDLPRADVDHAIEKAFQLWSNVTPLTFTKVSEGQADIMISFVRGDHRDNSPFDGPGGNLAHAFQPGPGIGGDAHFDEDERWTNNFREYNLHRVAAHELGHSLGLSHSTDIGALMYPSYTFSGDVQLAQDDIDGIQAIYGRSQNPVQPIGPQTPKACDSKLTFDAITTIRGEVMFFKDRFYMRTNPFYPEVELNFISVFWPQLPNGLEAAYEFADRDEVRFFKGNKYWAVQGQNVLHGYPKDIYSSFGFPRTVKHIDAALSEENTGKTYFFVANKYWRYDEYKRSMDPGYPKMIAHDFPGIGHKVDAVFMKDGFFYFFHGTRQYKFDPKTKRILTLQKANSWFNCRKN
Description: inhibition of collagenase (acetyl 14C collagen digestion, Cawston and Barrett). It is filed as biochemical. Particulars: Table 2; 37° C., 16 hours, native acetyl 14C collagen, pH 7.6; read-out: IC50 (μM) Human Rheumatoid Synovial collagenase. Here is the method: This was determined following the procedure of Cawston and Barrett, Anal. Biochem., 99, 340-345 (1979) whereby the 1 mM of the inhibitor being tested or dilutions thereof are incubated at 37° C. for 16 hours with native collagen and collagenase (buffered with Tris HCl--CaCl2; pH 7.6). The collagen is acetyl ^14 C collagen. The samples are centrifuged to sediment undigested collagen and an aliquot of the radiactive supernatant removed for assay on a scintillation counter as a measure of hydrolysis. The collagenase activity in the presence of 1 mM inhibitor, or a dilution thereof, is compared to activity in a control devoid of inhibitor and the results reported as that inhibitor concentration effecting 50% inhibition of the collagenase.
Regarding `CCCCNC(=O)[C@H](C)NC(=O)C(CC(C)C)C(C)S` (single isomer, unassigned) [Example 7 Isomer C, N-[2-(1-S-Mercaptoethyl)-4-methyl-pentanoyl]-L-alanine N-butylamide], the IC50 turned out to be 1.2 µM.

Take `CNC(=O)[C@@H](NC(=O)C(CC(C)C)C(C)S)[C@@H](C)OCc1ccccc1` (single isomer, unassigned) [Example 6 Isomer A, N-[2-(1-Mercaptoethyl)-4-methylpentanoyl]-O-benzyl-L-threonine N-Methylamide]: the IC50 was 0.45 µM.

On to `CNC(=O)[C@H](Cc1ccc(OC)cc1)NC(=O)C(CC(C)C)C(S)c1ccccc1` (single isomer, unassigned) [Example 2 Isomer A2, N-[2-(1-S-Mercaptobenzyl)-4-methylpentanoyl]-O-methyl-L-tyrosine-N-methylamide], for which the IC50 worked out at 1.71 µM.

`CCCCC(C(=O)N[C@@H](Cc1ccc(OC)cc1)C(=O)NC)C(C)S` (single isomer, unassigned) [Example 5 Isomer A, N-[2-(1-Mercaptoethyl)hexanoyl]-O-methyl-L-tyrosine N-methyl amide]: the IC50 is 0.2 µM.

As for `CNC(=O)[C@@H](NC(=O)C(CC(C)C)C(C)S)[C@@H](C)OCc1ccccc1` (single isomer, unassigned) [Example 6 Isomer B, N-[2-(1-Mercaptoethyl)-4-methylpentanoyl]-O-benzyl-L-threonine N-Methylamide], the half-inhibitory concentration (IC50) was 4.9 µM.

In the case of `CCCCNC(=O)[C@H](C)NC(=O)C(CC(C)C)C(C)S` (single isomer, unassigned) [Example 7 Isomer B, N-[2-(1-S-Mercaptoethyl)-4-methyl-pentanoyl]-L-alanine N-butylamide], the IC50 stood at 2 µM.

Regarding `CNC(=O)[C@H](Cc1ccc(OC)cc1)NC(=O)C(CC(C)C)C(S)C(C)C` (single isomer, unassigned) [Example 3 Isomer A, N-(2-(1-Mercapto-2-methylpropyl)-4-methylpentanoyl)-O-methyl-L-tyrosine N-Methyl amide], the IC50 came to 2 µM.

In the case of `CNC(=O)[C@H](Cc1ccc(OC)cc1)NC(=O)C(CC(C)C)C(S)c1ccccc1` (single isomer, unassigned) [Example 2 Isomer B1, N-[2-(1-S-Mercaptobenzyl)-4-methylpentanoyl]-O-methyl-L-tyrosine-N-methylamide], the IC50 was 3.9 µM.

Turning to `CNC(=O)[C@H](Cc1ccc(OC)cc1)NC(=O)C(CC(C)C)C(S)c1ccccc1` (single isomer, unassigned) [Example 2 Isomer A1, N-[2-(1-S-Mercaptobenzyl)-4-methylpentanoyl]-O-methyl-L-tyrosine-N-methylamide], the IC50 stood at 0.27 µM.

Take `CNC(=O)[C@H](Cc1ccc(OC)cc1)NC(=O)C(CC(C)C)C(C)S` (single isomer, unassigned) [Example 1 Isomer A2, N-[2-(1-Mercaptoethyl)-4-methylpentanoyl]-O-methyl-L-tyrosine N-Methylamide]: the IC50 amounted to 13 µM.

On to `CCCCCCC(C(=O)N[C@@H](Cc1ccc(OC)cc1)C(=O)NC)C(C)S` (single isomer, unassigned) [Example 4 Isomer A, N-[2-(1-mercaptoethyl)octanoyl]-O-methyl-L-tyrosine N-methylamide], for which the IC50 was found to be 5 µM.

As to `CNC(=O)[C@H](Cc1ccc(OC)cc1)NC(=O)C(CC(C)C)C(S)c1ccccc1` (single isomer, unassigned) [Example 2 Isomer B2, N-[2-(1-S-Mercaptobenzyl)-4-methylpentanoyl]-O-methyl-L-tyrosine-N-methylamide], the IC50 was found to be 12 µM.

For the molecule `CNC(=O)[C@H](Cc1ccc(OC)cc1)NC(=O)C(CC(C)C)C(C)S` (single isomer, unassigned) [Example 1 Isomer A1, N-[2-(1-Mercaptoethyl)-4-methylpentanoyl]-O-methyl-L-tyrosine N-Methylamide], the IC50 is 19 µM.

`CCCCCCC(C(=O)N[C@@H](Cc1ccc(OC)cc1)C(=O)NC)C(C)S` (single isomer, unassigned) [Example 4 Isomer B, N-[2-(1-mercaptoethyl)octanoyl]-O-methyl-L-tyrosine N-methylamide]: the 50% inhibitory concentration (IC50) amounted to 140 µM.

For the molecule `CNC(=O)[C@H](Cc1ccc(OC)cc1)NC(=O)C(CC(C)C)C(C)S` (single isomer, unassigned) [Example 1 Isomer B1, N-[2-(1-Mercaptoethyl)-4-methylpentanoyl]-O-methyl-L-tyrosine N-Methylamide], the half-maximal inhibitory concentration (IC50) turned out to be 0.22 µM.

As for `CNC(=O)[C@H](Cc1ccc(OC)cc1)NC(=O)C(CC(C)C)C(C)S` (single isomer, unassigned) [Example 1 Isomer B2, N-[2-(1-Mercaptoethyl)-4-methylpentanoyl]-O-methyl-L-tyrosine N-Methylamide], the half-maximal inhibitory concentration (IC50) came to 1.5 µM.

Take `CNC(=O)[C@H](Cc1ccc(OC)cc1)NC(=O)C(CC(C)C)C(S)C(C)C` (single isomer, unassigned) [Example 3 Isomer B, N-(2-(1-Mercapto-2-methylpropyl)-4-methylpentanoyl)-O-methyl-L-tyrosine N-Methyl amide]: the IC50 is 5 µM.

Regarding `CCCCC(C(=O)N[C@@H](Cc1ccc(OC)cc1)C(=O)NC)C(C)S` (single isomer, unassigned) [Example 5 Isomer B, N-[2-(1-Mercaptoethyl)hexanoyl]-O-methyl-L-tyrosine N-methyl amide], the IC50 turned out to be 1 µM.

With `CCCCNC(=O)[C@H](C)NC(=O)C(CC(C)C)C(C)S` (single isomer, unassigned) [Example 7 Isomer A, N-[2-(1-S-Mercaptoethyl)-4-methyl-pentanoyl]-L-alanine N-butylamide], the IC50 worked out at 4.9 µM.

Still in this assay, the particulars now being: Table 3; all compounds S stereochemistry at c; 37° C., 16 hours, pH 7.6; read-out: IC50 against human rheumatoid sinovial collagenase.
As for `CCCCNC(=O)[C@H](C)NC(=O)C(CC(C)C)C(C)S` (single isomer, unassigned) [Example 7 Isomer C, N-[2-(1-S-Mercaptoethyl)-4-methyl-pentanoyl]-L-alanine N-butylamide], the IC50 came to 1.2 µM.

With `CNC(=O)[C@@H](NC(=O)C(CC(C)C)C(C)S)[C@@H](C)OCc1ccccc1` (single isomer, unassigned) [Example 6 Isomer A, N-[2-(1-Mercaptoethyl)-4-methylpentanoyl]-O-benzyl-L-threonine N-Methylamide], the IC50 worked out at 0.45 µM.

Regarding `CNC(=O)[C@H](Cc1ccc(OC)cc1)NC(=O)C(CS)CC(C)C` (some centres unmarked) [reference compound], the IC50 amounted to 3.6 µM.

With `CNC(=O)[C@@H](NC(=O)C(CS)CC(C)C)C(C)OCc1ccccc1` (some centres unmarked) [reference compound], the half-inhibitory concentration (IC50) was found to be 4.8 µM.

Consider `CNC(=O)[C@H](Cc1ccc(OC)cc1)NC(=O)C(CC(C)C)C(C)S` (single isomer, unassigned) [Example 1 Isomer B1, N-[2-(1-Mercaptoethyl)-4-methylpentanoyl]-O-methyl-L-tyrosine N-Methylamide], for which the IC50 turned out to be 0.22 µM.

In the case of `CCCCNC(=O)[C@H](C)NC(=O)C(CS)CC(C)C` (some centres unmarked) [reference compound], the concentration for half-maximal inhibition (IC50) came out at 37 µM.

The same assay, now with this note: Table 3 footnote 4; individual determinations; read-out: IC50, individual results (footnote 4: mean of two results).
Consider `CCCCNC(=O)[C@H](C)NC(=O)C(CS)CC(C)C` (some centres unmarked) [reference compound], for which the IC50 was 25 µM and 44 µM.
